# Results taken from US9981972B2, “N-hydroxy bicyclic hydantoin carbamates as tools for identification of serine hydrolase targets” (ABIDE THERAPEUTICS, INC., priority 2014, dated 2018).
# How the values were obtained:
# [1] = biological target: T1, PPT1 (Homo sapiens, UniProt P50897); assay: ABPP-SILAC, PC3 cells treated in situ, Compound 39 probe; assay type: cell-based; parameters: endogenous in cells; host or cells: PC3; conditions: 4 h in situ
# T1 sequence (P50897 28-306): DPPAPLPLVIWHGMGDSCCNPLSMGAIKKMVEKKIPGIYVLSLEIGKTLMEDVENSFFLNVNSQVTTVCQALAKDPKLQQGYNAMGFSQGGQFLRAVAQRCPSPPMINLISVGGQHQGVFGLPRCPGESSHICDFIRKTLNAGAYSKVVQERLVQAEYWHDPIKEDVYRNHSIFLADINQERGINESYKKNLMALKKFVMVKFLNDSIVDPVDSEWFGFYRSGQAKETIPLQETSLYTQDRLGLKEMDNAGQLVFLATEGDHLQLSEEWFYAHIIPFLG
# Protocol: In situ inhibitor treatments of human cell lines were performed as described previously (Hsu et al., J Med Chem 56, 8270-8279, 2012). Briefly, PC3 or transfected HEK293T cells were grown to confluency in serum-containing media (RPMI or DMEM, respectively). The culture media was then removed and replaced with fresh media containing DMSO or inhibitor at the desired concentration and incubated for 4 hours in a tissue culture incubator (37° C., 5% CO2). Cells were then washed with PBS, harvested, washed with PBS once more, and lysed with a probe sonicator.
# Isotopically heavy- and light-labeled PC3 cells were treated with Compound 37 (1 μM) or DMSO for 4 h, respectively, lysed, and then treated Compound 39 (5 μM, 1 h). […] Accordingly, PPT1 was not detected in our previous ABPP-SILAC studies with FP-biotin (see FIG. 9). […]
# To evaluate the broader selectivity of Compound 26 and Compound 34 across the SH class, heavy and light isotopically-labeled PC3 cells were treated with inhibitor [Compound 34 (1 μM); or Compound 26 (1 or 0.1 μM); 4 h) and DMSO, respectively, followed by ABPP-SILAC analysis with either the FP-biotin probe or the Compound 39 probe. […] Conversely, Compound 34 inhibited >90% of ABHD4 activity, as measured with either the FP-biotin probe or the Compound 39 probe, and cross-reacted with four additional targets—ABHD6, PAFAH2, PLA2G7, and PLA2G15.
# [2] = tested on: other SHs (anti-targets) in mouse tissues; assay: Inhibition by gel-based competitive ABPP in vivo, other SHs; conditions: 4 h
# Protocol: In this assay, test compounds were administered to mice. Mice were sacrificed, and their tissues harvested, homogenized, and the soluble fractions isolated, reacted with FP-Rh, and separated by SDS-PAGE as described above.
# Protocol Summary: Purpose-bred 3-4 month old male C57BL6 laboratory mice were i.p. administered test compound (0.5-50 mg/kg in 18:1:1 saline:PEG-40-castor oil:EtOH vehicle solution, 10 μL/g mouse weight) or vehicle only. After 4 hours, mice were humanely sacrificed (anesthetized with isoflurane followed by cervical dislocation), and tissues (liver, kidney, brain) removed and snap frozen in liquid nitrogen before processing. Tissues were homogenized, and soluble proteome isolated by ultracentrifugation (100 k×g, 45 minutes) and protein concentration adjusted to 1 mg/mL in DPBS. An aliquot (50 μL) was reacted with FP-Rh (2 μM final concentration) for 30 minutes at 25° C. Reactions were quenched with 16 μL 4×SDS-PAGE loading buffer (reducing), separated by SDS-PAGE, and visualized by in-gel fluorescent scanning. The percentage activity remaining was determined by measuring the integrated optical density of test compound bands relative to vehicle bands. Note: Due to the overlapping nature of LYPLA1 and LYPLA2 bands, the proteins were quantified together.
# The in vivo inhibitory activity of Compound 1 was assessed. For this experiment, mice were administered test compound (0.5-50 mg/kg, i.p.) or vehicle only. After four hours mice were sacrificed and their tissues removed, homogenized, and the soluble fractions isolated and labeled with FP-Rh followed by SDS-PAGE and fluorescent detection of FP-labeled SHs (see FIG. 3B).
# (§1) Compound 26, Compound 34, and Compound 1 were administered across a dose range of 1-40 mg/kg to C57BL6 mice by intraperitoneal injection, and, after 4 hours, animals were sacrificed and tissues harvested for analysis by gel-based ABPP using the FP-Rh probe and the Compound 39 probe.
# [3] = biological target: T2, ABHD4 (Homo sapiens, UniProt Q8TB40); assay: NAPE substrate hydrolysis assay, ABHD4-transfected HEK293T cell lysates; assay type: biochemical; conditions: lysates from ABHD4-transfected HEK293T cells
# T2 sequence (Q8TB40 1-342): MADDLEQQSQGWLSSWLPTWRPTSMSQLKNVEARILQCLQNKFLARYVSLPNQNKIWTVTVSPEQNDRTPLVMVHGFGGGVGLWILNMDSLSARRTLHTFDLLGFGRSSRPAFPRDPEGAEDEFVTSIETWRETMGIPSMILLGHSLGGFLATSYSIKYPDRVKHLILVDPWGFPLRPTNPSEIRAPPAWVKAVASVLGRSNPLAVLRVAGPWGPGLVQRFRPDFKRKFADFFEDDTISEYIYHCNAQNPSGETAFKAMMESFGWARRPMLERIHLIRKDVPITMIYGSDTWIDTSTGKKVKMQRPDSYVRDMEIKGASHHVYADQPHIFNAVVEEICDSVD
# Protocol: NAPE hydrolysis was measured by following the release of oleic acid from the NAPE substrate (1,2-dioleoyl-sn-glycero-3-phospho (N-arachidonoyl) ethanolamine).
# [4] = biological target: T3, PPT1 (Mus musculus, UniProt O88531); assay: Inhibition by gel-based competitive ABPP in vivo (Compound 39 probe)
# T3 construct: from tissue; host or cells: central and peripheral tissues (e.g. brain, testis) of C57BL6 mice
# T3 sequence (O88531 28-306): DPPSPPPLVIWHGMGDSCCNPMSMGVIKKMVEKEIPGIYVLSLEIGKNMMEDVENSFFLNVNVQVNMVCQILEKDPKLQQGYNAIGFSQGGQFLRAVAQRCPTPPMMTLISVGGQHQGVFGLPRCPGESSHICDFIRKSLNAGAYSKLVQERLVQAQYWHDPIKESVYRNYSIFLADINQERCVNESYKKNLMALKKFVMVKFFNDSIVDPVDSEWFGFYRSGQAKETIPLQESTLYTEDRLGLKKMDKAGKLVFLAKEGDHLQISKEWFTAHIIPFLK
# Protocol: as §1
structure (smiles),measurement,setting,value
"COc1ccc(N2CCN(C(=O)ON3C(=O)C4CN(Cc5ccc(Oc6ccccc6)cc5)CCN4C3=O)CC2)cc1 (stereo not drawn) [Compound 37, 1,3-dioxo-7-(4-phenoxybenzyl)hexahydroimidazo[1,5-a]pyrazin-2(3H)-yl 4-(4-methoxyphenyl)piperazine-1-carboxylate]",inhibition at 1 µM,"[1]; PC-3, 1 μM, Compound 39 probe (5 μM, 1 h)",> 90%
"COc1ccc(N2CCN(C(=O)ON3C(=O)C4CN(CC5CCN(Cc6ccccc6)CC5)CCN4C3=O)CC2)cc1 (stereo not drawn) [Compound 26, 7-((1-benzylpiperidin-4-yl)methyl)-1,3-dioxohexahydroimidazo[1,5-a]pyrazin-2(3H)-yl 4-(4-methoxyphenyl)piperazine-1-carboxylate]",inhibition of other SHs in vivo,"[2]; 1-40 mg/kg i.p., brain and testis, FP-Rh or Compound 39 probe",did not inhibit other SHs
same,inhibition of PPT1 in PC3 cells,"[1]; 1 or 0.1 μM, Compound 39 probe",~90%
same,effect on NAPE hydrolysis activity of ABHD4,[3],neither Compound 26 nor Compound 1 altered
same,"mPPT1 (in vivo), % @ 5 mg/kg (testis)","[4]; 5 mg/kg, testis, mouse",100% @ 5 mg/kg
same,blockade of PPT1 in vivo,"[4]; 1-5 mg/kg i.p., 4 h, central and peripheral tissues",near-complete blockade
"O=C(ON1C(=O)C2CN(C(=O)N3CCOCC3)CCN2C1=O)N1CCC(CCc2ccc(Cl)cc2)CC1 (stereo not drawn) [Compound 1, 7-(morpholine-4-carbonyl)-1,3-dioxohexahydroimidazo[1,5-a]pyrazin-2(3H)-yl 4-(4-chloro-phenethyl)piperidine-1-carboxylate]",anti-target inhibition in vivo,"[2]; 0.5-50 mg/kg i.p., any tissue, ABHD6 not visible",no significant anti-target inhibition
same,cross-reactivity with other SHs in vivo,[2]; 1-40 mg/kg i.p.,limited cross-reactivity with other SHs
same,effect on NAPE hydrolysis activity of ABHD4,[3],neither Compound 26 nor Compound 1 altered
same,"mPPT1 (in vivo), % @ 10 mg/kg (testis)","[4]; 10 mg/kg, testis, mouse",100% @ 10 mg/kg
same,dose inhibiting PPT1 in vivo,"[4]; i.p., 4 h, Compound 39 probe",≥ 10 mg/kg
"O=C(ON1C(=O)C2CN(Cc3ccc(Oc4ccccc4)cc3)CCN2C1=O)N1CCOCC1 (stereo not drawn) [Compound 34, 1,3-dioxo-7-(4-phenoxybenzyl)hexahydroimidazo[1,5-a]pyrazin-2(3H)-yl morpholine-4-carboxylate]",IC50,[3],500 nM
